Reference: patent US8895579B2, “Heterotricyclic AMPA receptor antagonists for treatment of epilepsy, pain, and other neurological disorders and diseases” (Northwestern University, priority 2010, dated 2014)

Key:
Assay type in all cases: cell-based
[1] = tested on: primary hippocampal neurons; assay: Spontaneous action potential firing, current clamp, cultured hippocampal neurons; conditions: 20 μM
Experimental: (§1) Experiments involving primary hippocampal neurons were carried out as described previously (Vivithanaporn et al., 2007). Dissociated neurons were cultured from E18 prenatal hippocampi and were used for analysis from between 17 and 28 days in vitro. The extracellular solution was the same as used for recombinant receptor analysis, while the internal solution for voltage clamp recordings contained (in mM) 95 CsF, 25 CsCl, 10 Cs-HEPES, 10 EGTA, 2 NaCl, 2 Mg-ATP, 10 QX-314, 5 TEA. and 5 4-AP (pH 7.3) and the internal solution for current clamp recordings contained (in mM) 120 KMeSO4, 5 KCl, 5 NaCl, 1 MgCl2, 11 Na-HEPES, 10 phosphocreatine, 4 Na-ATP, and 0.3 Na-GTP (pH 7.0). Borosilicate patch electrodes were pulled and fire polished to 3-5 MΩ resistance. Both whole cell current clamp and voltage clamp recordings were performed using an Axopatch 200B amplifier (MDS, Sunnyvale, Calif.) and filtered at 20 kHz. Gigaohm seals were established in voltage clamp mode and, after membrane rupture, the recordings were carried out either in voltage clamp (clamped at Vm=−70 mV) with a […] series resistance, which was compensated to ˜60%, or in current clamp mode ([…]) with the bridge balance was corrected and pipette resistance neutralized. In vitro status epilepticus (SE) was induced as described previously (Deshpande et al., 2007; Pal et al., 1999) and action potentials were recorded in current clamp mode. Briefly for in vitro SE, magnesium-containing external solution was exchanged for external solution without magnesium and supplemented with 2 μM glycine. This solution exchange produced a period of rapid depolarization and increased AP firing, followed by a period of channel inactivation and reduced AP firing. After channel inactivation, neurons characteristically would hyperpolarize to hold at a membrane voltage (Vm) which was depolarized relative to control Vm, with an increase in AP firing frequency. […] External solutions were bath-applied at a flow rate of 1.5-2 ml/minute. After recording a basal control period, IKM compounds were applied for five minutes (10 minutes for in vitro SE experiments) and changes in excitatory post-synaptic current (EPSC) charge transfer or action potential (AP) frequency were analyzed during the last two minutes of IKM application.
Effects of IKM-159 on neuronal excitability. […] To determine if altered neuronal excitability could contribute to this behavioral phenotype, we examined the effect of IKM-86 and IKM-159 on action potential firing in cultured hippocampal neurons. Spontaneous action potentials were recorded in current-clamp mode before, during and after application of 20 μM IKM-86 and IKM-159. […]

[2] = biological target: T1, homomeric GluK2a kainate receptor (Rattus norvegicus, UniProt P42260); assay: Whole-cell patch clamp of recombinant GluK2a receptors in HEK293-T/17 cells; conditions: 30 μM; 10 mM glutamate
T1 construct: myc; expressed in transfected cells; host or cells: HEK293-T/17 (CRL-11268)
Experimental: (§2) Cell Culture and Transfection. Human embryonic kidney cells expressing T-antigen, clone 17 (HEK293-T/17) (CRL-11268) were cultured at 37° C. with 5% CO2 in DMEM, including 100 μg/mL penicillin, 100 μg/mL streptomycin, and 10% heat-inactivated fetal bovine serum. Cells were split twice per week. For transfection, HEK293-T/17 cells were plated at 3×10^4 cells/cm^2 for pharmacology experiments and 5×10^3 cells/cm^2 for physiology experiments in fresh medium 24 h prior to transfection. Cells were transfected with AMPA or KA receptor plasmid cDNAs using Mirus Trans-IT transfection reagent (Minus Bio Corporation, Madison, Wis.) at a ratio of 1 μg cDNA: 3 μL Trans-1T reagent and maintained in transfection medium overnight followed by a media change the next day. Transfected cells were maintained in this medium until the experiment was conducted (48-72 h total post transfection).
(§3) Electrophysiology. For analysis of recombinant receptors, HEK293-T/17 cells were co-transfected with 0.2 μg of iGluR cDNA and 0.05 μg of eGFP. For heterologous GluA1/GluA2 receptors, the GluA1:GluA2 cDNA ratio was 1:6. Two to three days post-transfection, eGFP-expressing cells were lifted from the cover slip and voltage clamped in whole cell mode. […]

[3] = tested on: primary hippocampal neurons; assay: In vitro model of status epilepticus (Mg2+ removal, 2 μM glycine), action potential firing in hippocampal neurons
Experimental: as §1
Several AMPA receptor selective antagonists reduce neuronal hyperactivity in both acute brain slice preparations and in in vitro models of epilepsy (Grasso et al., 1999; Szabados et al., 2001). […] We therefore tested the efficacy of IKM-159 in reducing the hyperactive neuronal phenotype in dissociated hippocampal neurons using an in vitro model of status epilepticus (SE) (Deshpande et al., 2007; Pal et al., 1999). […]

[4] = biological target: T2, homomeric GluK1-2b kainate receptor (Rattus norvegicus, UniProt P22756); assay: Whole-cell patch clamp of recombinant GluK1-2b receptors in HEK293-T/17 cells; conditions: 30 μM; 10 mM glutamate
T2 construct: myc; expressed in transfected cells; host or cells: HEK293-T/17 (CRL-11268)
Experimental: as §2, §3

T2 sequence (P22756 31-905 isoform P22756-2 limits assumed): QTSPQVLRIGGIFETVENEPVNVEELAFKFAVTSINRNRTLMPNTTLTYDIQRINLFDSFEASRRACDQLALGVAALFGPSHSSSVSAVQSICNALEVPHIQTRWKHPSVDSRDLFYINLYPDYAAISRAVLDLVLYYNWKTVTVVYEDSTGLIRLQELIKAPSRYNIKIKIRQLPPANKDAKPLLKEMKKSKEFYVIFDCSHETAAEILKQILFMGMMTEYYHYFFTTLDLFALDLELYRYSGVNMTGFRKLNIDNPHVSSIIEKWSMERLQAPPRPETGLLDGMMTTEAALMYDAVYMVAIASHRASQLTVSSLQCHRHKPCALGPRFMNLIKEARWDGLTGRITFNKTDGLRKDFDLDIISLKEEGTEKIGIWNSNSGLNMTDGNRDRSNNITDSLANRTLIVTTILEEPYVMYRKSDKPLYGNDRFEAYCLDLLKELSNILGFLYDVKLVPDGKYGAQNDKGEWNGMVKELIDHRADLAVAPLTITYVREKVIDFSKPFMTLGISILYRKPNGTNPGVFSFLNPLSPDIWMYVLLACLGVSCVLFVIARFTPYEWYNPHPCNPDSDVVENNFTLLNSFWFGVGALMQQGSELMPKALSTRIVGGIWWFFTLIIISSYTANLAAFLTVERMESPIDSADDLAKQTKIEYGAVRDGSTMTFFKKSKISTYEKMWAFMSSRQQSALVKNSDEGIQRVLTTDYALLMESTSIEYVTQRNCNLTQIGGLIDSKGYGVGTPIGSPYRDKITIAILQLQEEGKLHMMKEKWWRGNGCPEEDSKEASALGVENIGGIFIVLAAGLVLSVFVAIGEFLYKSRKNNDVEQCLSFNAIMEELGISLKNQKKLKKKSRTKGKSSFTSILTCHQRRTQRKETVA
T1 sequence (P42260 32-908): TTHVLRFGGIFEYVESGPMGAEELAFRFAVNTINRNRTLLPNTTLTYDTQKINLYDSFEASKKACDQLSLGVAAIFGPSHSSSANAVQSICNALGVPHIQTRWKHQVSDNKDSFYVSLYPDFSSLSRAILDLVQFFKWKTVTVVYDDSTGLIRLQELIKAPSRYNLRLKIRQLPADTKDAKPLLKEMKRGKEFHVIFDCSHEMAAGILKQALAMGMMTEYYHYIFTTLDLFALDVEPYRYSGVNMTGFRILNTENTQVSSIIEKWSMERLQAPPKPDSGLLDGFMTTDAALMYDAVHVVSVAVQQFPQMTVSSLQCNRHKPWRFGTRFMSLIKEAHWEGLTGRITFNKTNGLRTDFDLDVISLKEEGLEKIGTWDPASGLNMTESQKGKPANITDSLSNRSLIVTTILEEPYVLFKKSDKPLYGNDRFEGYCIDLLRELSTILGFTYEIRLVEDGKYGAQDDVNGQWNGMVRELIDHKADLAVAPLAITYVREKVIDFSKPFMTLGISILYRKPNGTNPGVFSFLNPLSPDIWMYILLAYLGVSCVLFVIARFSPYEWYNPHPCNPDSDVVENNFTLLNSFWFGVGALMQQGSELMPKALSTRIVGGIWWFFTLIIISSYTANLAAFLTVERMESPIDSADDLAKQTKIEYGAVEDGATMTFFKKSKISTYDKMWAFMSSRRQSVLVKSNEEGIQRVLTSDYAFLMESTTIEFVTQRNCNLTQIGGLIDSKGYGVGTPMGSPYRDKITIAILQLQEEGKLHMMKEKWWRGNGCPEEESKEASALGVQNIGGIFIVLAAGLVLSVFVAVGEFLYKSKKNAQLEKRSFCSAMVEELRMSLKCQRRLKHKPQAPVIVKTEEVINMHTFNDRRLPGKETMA

`O=C(O)C[C@@]12O[C@H]3C=CCN[C@H]3C1CN[C@H]2C(=O)O` (stereo partly shown) [IKM-159] was tested, and the “persistence of reduction in action potential firing frequency after removal of compound” value [1] was “prolonged”, the “action potential firing frequency in presence of compound” value ([1]; basal (spontaneous) firing) was 0.5±0.04 Hz and the “GluK2a peak amplitude as percent of basal peak glutamate current” value [2] was 93±2%. The “AP firing frequency in SE condition with compound” value ([3]; 3 μM, SE condition 5.7±1.2 Hz, n.s.) was 4.3±1.7 Hz, the “AP firing frequency upon wash out of compound” value ([3]; 20 μM, 10 minutes after removal) was 1.0±0.3 Hz and the “AP firing frequency in SE condition with compound” value ([3]; 20 μM, SE condition 2.3±0.4 Hz) was 0.9±0.3 Hz. For the same molecule, the “GluK1-2b peak amplitude as percent of basal peak glutamate current” value [4] was 90±10%.
